Measurements reported in ChEMBL document CHEMBL4613276, “Discovery of New 1,1'-Biphenyl-4-sulfonamides as Selective Subnanomolar Human Carbonic Anhydrase II Inhibitors” (ACS Med Chem Lett, 2020).

Legend:
Carbonic anhydrase 9 = Carbonic anhydrase 9 (Homo sapiens, UniProt Q16790)
Description: Inhibition of recombinant human carbonic anhydrase 9 preincubated with enzyme for 10 mins by phenol red dye based stopped flow CO2 hydration assay

Carbonic anhydrase 1 = Carbonic anhydrase 1 (Homo sapiens, UniProt P00915); experiment: Inhibition of recombinant human carbonic anhydrase 1 preincubated with enzyme for 10 mins by phenol red dye based stopped flow CO2 hydration assay
Carbonic anhydrase 2 = Carbonic anhydrase 2 (Homo sapiens, UniProt P00918); experiment: Inhibition of recombinant human carbonic anhydrase 2 preincubated with enzyme for 10 mins by phenol red dye based stopped flow CO2 hydration assay

Carbonic anhydrase 1, sequence (P00915 whole entry): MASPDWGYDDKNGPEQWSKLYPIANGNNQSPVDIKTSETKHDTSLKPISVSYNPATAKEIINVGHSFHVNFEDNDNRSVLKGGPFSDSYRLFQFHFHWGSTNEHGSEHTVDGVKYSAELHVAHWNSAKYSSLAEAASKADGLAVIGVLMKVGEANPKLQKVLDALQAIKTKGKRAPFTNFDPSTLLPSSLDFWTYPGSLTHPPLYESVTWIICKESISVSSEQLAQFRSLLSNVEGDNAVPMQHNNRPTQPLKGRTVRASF

Row | SMILES | Ki (Carbonic anhydrase 9) [µM] | Ki (Carbonic anhydrase 1) [µM] | Ki (Carbonic anhydrase 2) [µM]
1 | NS(=O)(=O)c1ccc(-c2ccc(Cc3cccc(C(=O)O)c3)cc2)cc1 | 0.323 | 0.0213 | 0.00057
2 | NS(=O)(=O)c1ccc(-c2ccc(C3OC(=O)c4ccccc43)cc2)cc1 (stereo not drawn) | 0.249 | 0.0801 | 0.0007
3 | NS(=O)(=O)c1ccc(-c2ccc(Cc3ccccc3C(=O)O)cc2)cc1 | 0.437 | 0.0068 | 0.00069
4 | NS(=O)(=O)c1ccc(-c2ccc(C(O)c3cccc(C(=O)O)c3)cc2)cc1 (stereo not drawn) | 0.0884 | 0.0069 | 0.00083
5 | Nc1ccccc1C(O)c1ccc(-c2ccc(S(N)(=O)=O)cc2)cc1 (stereo not drawn) | 0.092 | 0.0084 | 0.00097
6 | NS(=O)(=O)c1ccc(-c2ccc(C(=O)c3ccccc3C(=O)O)cc2)cc1 | 0.469 | 0.0394 | 0.00083
7 | NS(=O)(=O)c1ccc(-c2ccc(C(=O)c3cccc(C(=O)O)c3)cc2)cc1 | 0.491 | 0.0073 | 0.00094

The remaining compounds from weak to strong by Ki (Carbonic anhydrase 9), led by results:

Row | Ki (Carbonic anhydrase 9) [µM] | Ki (Carbonic anhydrase 1) [µM] | Ki (Carbonic anhydrase 2) [µM] | SMILES
8 | 0.556 | 0.0059 | 0.00092 | Nc1cccc(Cc2ccc(-c3ccc(S(N)(=O)=O)cc3)cc2)c1
9 | 0.464 | 0.0331 | 0.00078 | Nc1cccc(C(O)c2ccc(-c3ccc(S(N)(=O)=O)cc3)cc2)c1 (stereo not drawn)
10 | 0.289 | 0.218 | 0.031 | Nc1ccccc1C(=O)c1ccc(-c2ccc(S(N)(=O)=O)cc2)cc1
11 | 0.266 | 0.0873 | 0.0098 | Nc1cccc(C(=O)c2ccc(-c3ccc(S(N)(=O)=O)cc3)cc2)c1
